Where a name gives a salt, the structure may show the parent alone.
Legend:
Malassezia furfur 14521 = experiment: Antifungal activity on M. furfur (resazurin viability, MIC and ΣFIC); assay type: cell-based; details: M. furfur 14521, YPD broth, 30° C., 72 hours, resazurin colour
Protocol: The samples as given in Table 1 were subjected to their anti fungal efficacy on M. furfur as described hereinafter.
The test organism used in the assay is Malassezia furfur 14521. The M. furfur were revived from glycerol stock in YPD agar plates (yeast extract peptone dextrose media) containing 1% corn oil. The composition of YPD is yeast extract:10 g/litre, dextrose 20 g/litre, Peptone 20 g/litre and agarose 0.15%. The plates were incubated at 30° C. for 72 hours for forming fungal colonies. A suspension culture of M. furfur was made using the colonies from plates in YPD broth. The optical density of the suspension culture was adjusted to 0.6 using spectrophotometer. This suspension was diluted in the ratio of 1:10 using YPD broth and 100 μl of this culture was added into each well of 96 well test plate. A stock solution of 40× strength of piroctone olamine was prepared for each of the concentrations tested eg for 0.0.001% test concentration of piroctone olamine a stock of 0.04% was prepared in DMSO (dimethyl sulphoxide). 5 μl of piroctone olamine was added to 100 μl of M. furfur culture. A stock solution of 4× strength of itaconic acid or sodium benzoate was prepared for each of the concentrations tested e.g. for 0.0.001% test concentration of itaconic acid or sodium benzote a stock of 0.004% was prepared in YPD broth. 50 μl of itaconic acid or sodium benzoate was added to 100 μl of M. furfur culture. In wells containing only one test ingredient, (itaconic acid or sodium benzoate only) 50 μl of test ingredient was added to 100 μl of fungal culture and then made up the volume to 200 μl with YPD broth. In wells containing only piroctone olamine 5 μl of piroctone olamine was added to 100 μl of fungal culture and then made up the volume to 200 μl with YPD broth. […] The anti-fungal efficacy of the ingredient or combination of ingredients is calculated based on the colour development. […]
The combinations of test ingredients with synergistic anti-fungal benefits were evaluated using ΣFIC method. The ΣFIC of the combinations were calculated using the following formula: […]

[1] = cited from earlier work

SMILES: Cc1cc(CC(C)CC(C)(C)C)n(O)c(=O)c1 (centres unmarked) [Piroctone olamine, 1-Hydroxy-4-methyl-6-(2,4,4-trimethylpentyl)-2-(1H)pyridinone,2-aminoethanol salt]
- Minimum inhibitory concentration (MIC) (Malassezia furfur 14521): 0.002 wt %
- solubility in 10% ethanol in water ([1]; 10% ethanol in water): soluble
- solubility in solution containing surfactants in water or in 1%-10% ethanol ([1]; solution containing surfactants in water or in 1%-10% ethanol): soluble

SMILES: C=C(CC(=O)OC)C(=O)OC [Dimethyl itaconate]
- Minimum inhibitory concentration (MIC) (Malassezia furfur 14521): 0.5 wt %

SMILES: O=C([O-])c1ccccc1.[Na+] [Sodium benzoate]
- Minimum inhibitory concentration (MIC) (Malassezia furfur 14521): 0.5 wt %

From patent publication US12138334B2, “Antidandruff composition” (Conopco, Inc., priority 2019, dated 2024)
